Active and inactive are the calls of the source. No cut-off for these calls is given here.
Key:
SARS-CoV-2 [1] = assay: Antiviral activity against luciferase-expressing pseudovirus encoding SARS-CoV-2 Omicron S/HIV infected in human 293T/ACE2 cells assessed as reduction of viral growth at 10 uM measured after 48 hrs by luciferase assay relative to control; format: functional, Severe acute respiratory syndrome coronavirus 2; parameters: scale not given: the % may be the effect or the level left
SARS-CoV-2 [2] = assay: Antiviral activity against vesicular stomatitis virus glycoprotein expressing pseudovirus encoding SARS-CoV-2 infected in human 293T/ACE2 cells assessed as reduction of viral growth at 0.078 to 10 uM measured after 48 hrs by luciferase assay; format: functional, organism-based; details: Severe acute respiratory syndrome coronavirus 2, dose 0.078-10 µM
[3] = Cytotoxicity against human 293T/ACE2 cells assessed as reduction in cell growth measured after 48 hrs by MTT assay; format: functional
[4] = Metabolic stability in rat liver microsomes assessed as intrinsic clearance measured upto 250 mins by LC-MS/MS analysis; format: ADME, Microsome; details: 4.167 h
[5] = Metabolic stability in rat liver microsomes assessed as half life measured upto 250 mins by LC-MS/MS analysis; format: ADME, Microsome; details: 4.167 h
Spike glycoprotein = Spike glycoprotein (Severe acute respiratory syndrome coronavirus 2, UniProt P0DTC2); assay: Binding affinity to C-terminal 6His-tagged SARS-COV-2 recombinant S protein (Val16 to Arg685 residues) expressed in mammalian expression system assessed as dissociation constant by SPR analysis
[6] = Selectivity index, ratio of CC50 for human 293T/ACE2 cells to EC50 for SARS-CoV-2 Omicron; format: toxicity; details: read-out: Ratio CC50/EC50
SARS-CoV-2 [7] = assay: Antiviral activity against luciferase-expressing pseudovirus encoding SARS-CoV-2 Omicron expressing S protein infected in human 293T/ACE2 cells assessed as reduction of viral growth measured after 48 hrs by luciferase assay; format: functional, organism-based; details: Severe acute respiratory syndrome coronavirus 2, 293T/ACE2, 48 h
SARS-CoV-2 [8] = assay: Antiviral activity against luciferase-expressing pseudovirus encoding SARS-CoV-2 Omicron expressing S protein infected in human 293T/ACE2 cells assessed as reduction of viral growth at 0.078 to 10 uM measured after 48 hrs by luciferase assay; format: functional, organism-based; details: Severe acute respiratory syndrome coronavirus 2, dose 0.078-10 µM
[9] = Stability of compound in rat plasma assessed as change in retention time of parent compound incubated for 180 mins by LC-MS/MS analysis; format: ADME, cell-free; details: 3 h
[10] = molecular target: Spike glycoprotein/Angiotensin-converting enzyme 2 (Severe acute respiratory syndrome coronavirus 2) (UniProt Q9BYF1+P0DTC2); assay: Inhibition of SARS-COV-2 S1 protein/human ACE2 receptor interaction at 20 uM by co-immunoprecipitation assay
SARS-CoV-2 [11] = assay: Antiviral activity against SARS-COV-2 Omicron expressing S protein and co-expressing EGFP infected in African green monkey Vero E6 cells assessed as inhibition of S protein mediated membrane fusion at 10 uM incubated of 30 mins measured after 24 hrs by inverted fluorescence microscopic analysis; format: functional, organism-based; details: Severe acute respiratory syndrome coronavirus 2, time 24.5 hrs
[12] = test system: Severe acute respiratory syndrome coronavirus 2; assay: Inhibition of 6-helical bundle formation in SARS-CoV-2 Spike protein HR1/HR2 domains in presence of HR-1P and HR2P at 20 uM incubated for 30 mins by circular dichroism spectroscopy assay

**Q.** With `C=C(C)[C@@H]1CC[C@]2(C(=O)Nc3ccc4ccccc4c3)CC[C@]3(C)[C@H](CC[C@@H]4[C@@]5(C)CC[C@H](O[C@@H]6O[C@H](CO)[C@@H](O[C@@H]7O[C@@H](C)[C@H](O)[C@@H](O)[C@H]7O)[C@H](O)[C@H]6O[C@@H]6O[C@@H](C)[C@H](O)[C@@H](O)[C@H]6O)C(C)(C)[C@@H]5CC[C@]43C)[C@@H]12` as the compound, how does the Activity (SARS-CoV-2 [1]) read?
**A.** Its Activity is 90%.

**Q.** And the Activity (SARS-CoV-2 [2])?
**A.** Its Activity is “inactive”.

**Q.** What about the CC50 [3] of the same compound?
**A.** Its CC50 is 60.3 µM.

**Q.** And the CLH [4]?
**A.** The CLH was 1.15 µL/min/mg.

**Q.** What about the t1/2 [5] of the same compound?
**A.** Its t1/2 is 2.8202 h.

**Q.** And the Kd (Spike glycoprotein)?
**A.** The Kd was 3.26 µM.

**Q.** And the selectivity ratio [6]?
**A.** The selectivity ratio was 73.6.

**Q.** What about the EC50 (SARS-CoV-2 [7]) of the same compound?
**A.** Its EC50 is 0.82 µM.

**Q.** What about the Activity (SARS-CoV-2 [8]) of the same compound?
**A.** The Activity was “Dose-Dependent Effect”.

**Q.** And the Stability [9]?
**A.** The Stability was “Stable”.

**Q.** What about the inhibition [10] of the same compound?
**A.** Its inhibition is “inactive”.

**Q.** And the Activity (SARS-CoV-2 [11])?
**A.** Its Activity is “Active”.

**Q.** What about the inhibition [12] of the same compound?
**A.** Its inhibition is “inactive”.

**Q.** Which CC50 [3] does the source give for `C=C(C)[C@@H]1CC[C@]2(C(=O)NCc3ccc4ccccc4c3)CC[C@]3(C)[C@H](CC[C@@H]4[C@@]5(C)CC[C@H](O[C@@H]6O[C@H](CO)[C@@H](O[C@@H]7O[C@@H](C)[C@H](O)[C@@H](O)[C@H]7O)[C@H](O)[C@H]6O[C@@H]6O[C@@H](C)[C@H](O)[C@@H](O)[C@H]6O)C(C)(C)[C@@H]5CC[C@]43C)[C@@H]12` here?
**A.** Its CC50 is 167 µM.

**Q.** What about the selectivity ratio [6] of the same compound?
**A.** Its selectivity ratio is 62.7.

**Q.** What about the EC50 (SARS-CoV-2 [7]) of the same compound?
**A.** The EC50 was 2.67 µM.

**Q.** And the inhibition [10]?
**A.** Its inhibition is “inactive”.

**Q.** For `C=C(C)[C@@H]1CC[C@]2(C(=O)Nc3ccccc3Cl)CC[C@]3(C)[C@H](CC[C@@H]4[C@@]5(C)CC[C@H](O[C@@H]6O[C@H](CO)[C@@H](O[C@@H]7O[C@@H](C)[C@H](O)[C@@H](O)[C@H]7O)[C@H](O)[C@H]6O[C@@H]6O[C@@H](C)[C@H](O)[C@@H](O)[C@H]6O)C(C)(C)[C@@H]5CC[C@]43C)[C@@H]12`, which CC50 [3] is on record?
**A.** Its CC50 is 47.1 µM.

**Q.** What about the selectivity ratio [6] of the same compound?
**A.** The selectivity ratio was 8.7.

**Q.** And the EC50 (SARS-CoV-2 [7])?
**A.** Its EC50 is 5.41 µM.

**Q.** Which CC50 [3] does the source give for `C=C(C)[C@@H]1CC[C@]2(C(=O)N(C)c3ccccc3)CC[C@]3(C)[C@H](CC[C@@H]4[C@@]5(C)CC[C@H](O[C@@H]6O[C@H](CO)[C@@H](O[C@@H]7O[C@@H](C)[C@H](O)[C@@H](O)[C@H]7O)[C@H](O)[C@H]6O[C@@H]6O[C@@H](C)[C@H](O)[C@@H](O)[C@H]6O)C(C)(C)[C@@H]5CC[C@]43C)[C@@H]12` here?
**A.** Its CC50 is 69.5 µM.

**Q.** And the selectivity ratio [6]?
**A.** The selectivity ratio was 13.7.

**Q.** What about the EC50 (SARS-CoV-2 [7]) of the same compound?
**A.** The EC50 was 5.06 µM.

**Q.** With `C=C(C)[C@@H]1CC[C@]2(C(=O)Nc3cccc(OC)c3)CC[C@]3(C)[C@H](CC[C@@H]4[C@@]5(C)CC[C@H](O[C@@H]6O[C@H](CO)[C@@H](O[C@@H]7O[C@@H](C)[C@H](O)[C@@H](O)[C@H]7O)[C@H](O)[C@H]6O[C@@H]6O[C@@H](C)[C@H](O)[C@@H](O)[C@H]6O)C(C)(C)[C@@H]5CC[C@]43C)[C@@H]12` as the compound, how does the CC50 [3] read?
**A.** The CC50 was 73.3 µM.

**Q.** What about the selectivity ratio [6] of the same compound?
**A.** The selectivity ratio was 26.9.

**Q.** What about the EC50 (SARS-CoV-2 [7]) of the same compound?
**A.** Its EC50 is 2.73 µM.

**Q.** For `C=C(C)[C@@H]1CC[C@]2(C(=O)Nc3ccccc3)CC[C@]3(C)[C@H](CC[C@@H]4[C@@]5(C)CC[C@H](O[C@@H]6O[C@H](CO)[C@@H](O[C@@H]7O[C@@H](C)[C@H](O)[C@@H](O)[C@H]7O)[C@H](O)[C@H]6O[C@@H]6O[C@@H](C)[C@H](O)[C@@H](O)[C@H]6O)C(C)(C)[C@@H]5CC[C@]43C)[C@@H]12`, which CC50 [3] is on record?
**A.** Its CC50 is > 200 µM.

**Q.** What about the selectivity ratio [6] of the same compound?
**A.** Its selectivity ratio is > 16.

**Q.** And the EC50 (SARS-CoV-2 [7])?
**A.** The EC50 was 12.5 µM.

**Q.** What about the inhibition [10] of the same compound?
**A.** The inhibition was “inactive”.

**Q.** What does the source list for `O=C(/C=C/c1ccc(O)c2oc(-c3ccc(O)c(O)c3)cc12)O[C@H](Cc1ccc(O)c(O)c1)C(=O)O`?
**A.** CC50 [3]: > 100 µM; selectivity ratio [6]: > 17.8; EC50 (SARS-CoV-2 [7]): 5.63 µM

**Q.** Which results are given for `C=C(C)[C@@H]1CC[C@]2(C(=O)OC)CC[C@]3(C)[C@H](CC[C@@H]4[C@@]5(C)CC[C@H](O[C@@H]6O[C@H](CO)[C@@H](O[C@@H]7O[C@@H](C)[C@H](O)[C@@H](O)[C@H]7O)[C@H](O)[C@H]6O[C@@H]6O[C@@H](C)[C@H](O)[C@@H](O)[C@H]6O)C(C)(C)[C@@H]5CC[C@]43C)[C@@H]12`?
**A.** CC50 [3]: 40.9 µM; selectivity ratio [6]: 5.8; EC50 (SARS-CoV-2 [7]): 7.04 µM

**Q.** What does the source list for `C=C(C)[C@@H]1CC[C@]2(C(=O)NCc3cccs3)CC[C@]3(C)[C@H](CC[C@@H]4[C@@]5(C)CC[C@H](O[C@@H]6O[C@H](CO)[C@@H](O[C@@H]7O[C@@H](C)[C@H](O)[C@@H](O)[C@H]7O)[C@H](O)[C@H]6O[C@@H]6O[C@@H](C)[C@H](O)[C@@H](O)[C@H]6O)C(C)(C)[C@@H]5CC[C@]43C)[C@@H]12`?
**A.** CC50 [3]: 41.9 µM; selectivity ratio [6]: 6.81; EC50 (SARS-CoV-2 [7]): 6.15 µM
